Consider 2 molecules from US20210137934A1, “METHODS OF IDENTIFYING MYC-DRIVEN AND LIPOGENESIS-DEPENDENT NEOPLASMS AND METHODS OF TREATING THE SAME” (The Board of Trustees of the Leland Stanford Junior …, priority 2017, published 2021).

“Also recorded” adds a separate entry of the source.

The test system of test [1] is human lymphoma B-cell line (P493-6). In words: In vitro cell proliferation by total live cell counts, P493-6. It counts as cell-based. As to conditions: P493-6 cells, various concentrations. On the procedure: (§1) Cell culture conditions. P493-6 cells are cultured in Gibco's RPM11640 media under normal culture conditions of 20% O2, 4% CO2, and 37° C. P493 cells are suspension cells, and they are kept at 0.2-1.8 million cells/ml density to avoid confluency. In order to turn off Myc, 1 μg/ml of tetracycline is applied to the media for 48 hours to completely suppress Myc. Mouse-derived renal carcinoma line E28 and human RCC 786-O cell line are cultured for in vitro experiments under normal culture conditions of 20% O2, 4% CO2, and 37° C. 786-O and E28 cells are maintained in Dulbecco's Modified Eagle Medium (DMEM), which is supplemented with 10% fetal bovine serum (FBS), 1% L-glutamine, 1% sodium pyruvate, 1% nonessential amino acids, and Antibiotic-Antimycotic. Trypsin-EDTA is used to passage E28 and 786-O cells. All cell culture reagents are purchased from Gibco® (Thermo Fisher Scientific Inc.).
(§2) Small molecule inhibitors. The small molecule, TOFA (Sigma), diluted in dimethyl sulfoxide (DMSO) to the desired concentrations is added to cell culture medium to achieve inhibition of ACACA. TOFA is an allosteric inhibitor of ACACA, the enzyme which catalyzes the rate-limiting step of fatty acid synthesis. Various concentrations of TOFA are administered to cells in culture over time to assess dose-response suppression of proliferation. For in vivo treatment of mice, 25 mg/kg TOFA is administered daily by intraperitoneal injections (IP). The stock TOFA is diluted in DMSO to 10 mg/ml, such that the final injected volume is around 50 μl since the mice weigh about 20 g.
(§3) Cell counting. A volume of cells is removed from culture medium and mixed with an equal volume of 0.4% Trypan blue stain. Then 10 μl hemocytometer for cell counting. Viable cell counts are used as a measure of cell proliferation.

The subject of another test is T-ALL (4188) cells. In words: In vitro cell growth, 4188. It is filed as cell-based, mouse. As to conditions: 4188 T-ALL cells. As to the method:
as §2, with “g. Cell counting. A volume of cells is removed from culture medium and mixed with an equal volume of 0.4% Trypan blue stain. Then 10 μl hemocytometer for cell counting. Viable cell counts are used as a measure of cell proliferation.” for “g.”

The test system of another test is RCC (E28) cells. The test is described as follows: In vitro cell proliferation by total live cell counts, E28. It is filed as cell-based, mouse. Conditions: for cell growth / proliferation (total live cell counts): various concentrations. As to the method: as §1, §2, §3
A further test deals with HCC (EC4) cells. In words: In vitro cell growth, EC4. It is filed as cell-based, mouse. As to the method: as §2, with “g. Cell counting. A volume of cells is removed from culture medium and mixed with an equal volume of 0.4% Trypan blue stain. Then 10 μl hemocytometer for cell counting. Viable cell counts are used as a measure of cell proliferation.” for “g.”
Test [2] deals with transgenic MYC-induced RCC. The test is described as follows: Transgenic MYC-induced RCC mouse model, tumor growth (kidney weight and size, histology). As to conditions: 25 mg/kg daily IP. It counts as in vivo. On the procedure:
as §2

Test [3] concerns human RCC 786-O xenograft. The test is described as follows: Human RCC 786-O xenograft in NSG mice. It is filed as in vivo, mouse. Conditions: 25 mg/kg daily IP. As to the method:
as §1
(§4) Small molecule inhibitors. The small molecule, TOFA (Sigma), diluted in dimethyl sulfoxide (DMSO) to the desired concentrations is added to cell culture medium to achieve inhibition of ACACA. TOFA is an allosteric inhibitor of ACACA, the enzyme which catalyzes the rate-limiting step of fatty acid synthesis. Various concentrations of TOFA are administered to cells in culture over time to assess dose-response suppression of proliferation. […]
For orientation: A xenograft is tissue or cells of one species grown in another, often human tumour cells in immunodeficient mice.

Test [4] relates to PGs and PIs. The test is described as follows: DESI-MSI lipid profile in transgenic MYC-induced RCC. It is filed as in vivo, mouse. On the procedure:
as §2
(§5) Desorption Electrospray Ionization Mass Spectrometry Imaging (DESI-MSI). DESI-MSI is used for generating two-dimensional chemical maps of various tissues sections in order to assess the lipid profile of an organ. Tissue sections of 16 μm thick are imaged by this method using a lab-built DESI-MSI source coupled to an LTQ-Orbitrap XL mass spectrometer (Thermo Fisher Scientific, MA), and the mass spectra are acquired in negative ion mode using the Orbitrap as the mass analyzer at 60,000 resolving power. […] All tissues are histopathologically evaluated after imaging using standard hematoxylin and eosin (H&E) staining, to ensure a correct interpretation of lipid signals. […]

Test [5] has as its system PGs and PIs. The test is described as follows: DESI-MSI lipid profile in human RCC xenograft. It counts as in vivo, mouse. On the procedure: as §2, §5
Test [6] relates to human RCC tumor derived cell line, 786-0. In words: Human RCC 786-O cell line treated in vitro. It is filed as cell-based. Conditions: 786-0 cell line treated in vitro. As to the method:
as §1, §4

On to `C/C=C/C/C=C/CCC(=O)[C@H]1O[C@H]1C(N)=O` [cerulenin, Cerulenin], for which the “cell growth / proliferation (total live cell counts)” value in test [1] is on record as “growth inhibited in vitro in a dose-dependent manner”; in [1] (listed as Cerulenin), “decreased in a dose-dependent manner”; with RCC (E28) cells it was “growth inhibited in vitro in a dose-dependent manner”. The cell growth entry in the test on T-ALL (4188) cells and in the test on HCC (EC4) cells was “growth inhibited in vitro in a dose-dependent manner” each time.
Take `CCCCCCCCCCCCCCOc1ccc(C(=O)O)o1` [TOFA, 5-(tetradecyloxy)-2-furancarboxylic acid]: the “tumor progression / regression, treatment after tumor onset” value in test [2] (treatment at week 2 (15 day MYC on tumor), kidney weight and size, histology) was “regressed; also recorded: induced tumor regression; also recorded: significantly reduces kidney tumor progression”. In test [2] (treatment from week 0 (day 0 MYC on)), the “tumor growth / tumorigenesis, treatment before tumor onset” value is on record as “blocked; also recorded: prevented tumor growth; also recorded: completely prevents tumorigenesis”. The “cell growth / proliferation (total live cell counts)” value is “growth inhibited in vitro in a dose-dependent manner; also recorded: decreased in a dose-dependent manner” in test [1] and “growth inhibited in vitro in a dose-dependent manner; also recorded: similar” with RCC (E28) cells. Further, the xenograft tumor growth entry in test [3] is “regresses; also recorded: exhibited tumor regression”. The “PGs and PIs by DESI-MSI during tumor initiation and regression” value with PGs and PIs [4] is “suppressed; also recorded: block PGs and PIs”. For the same molecule, the “PGs and PIs by DESI-MSI” value with PGs and PIs [5] was “block PGs and PIs”. In addition, the “tumor cell response in vitro” value in test [6] is “exhibited tumor regression”. The “rescue of growth inhibition by addition of oleate” value in the test on RCC (E28) cells (oleate added) was “partially rescuable; also recorded: partially rescued”.
